Assays:
mildew = assay: Outdoor exposure of wood-plastic composite panels including biocides, mildew growth (ASTM D 3274-94); set-up: key: 10 - No mildew growth; 9 - Very slight growth; 8 - Slight (very good); 7 - Some growth (good); 6 - Moderate growth (considered a failure); 4 - Pronounced growth; 2 - Severe growth; 0 - Very severe growth; conditions: WPC panel, Miami; for Mildew Growth 3 Months: 3 months outdoors; for Mildew Growth 6 Months: 6 months outdoors; for Mildew Growth 9 Months: 9 months outdoors; for Mildew Growth 12 Months: 12 months outdoors
Protocol: Several candidate biocides were tested in a typical WPC formulation, which is presented below in Table I.
WPC panels for evaluation were prepared by blending the above ingredients in a drum mixer for 30 to 35 minutes at 30 to 40 rpm and then processing the resulting mixture through a Tek Milacron extruder. This extruder is a twin-screw counter rotating conical unit having four temperature zones, for a total heated length of ten feet (3.0 m), and a 3.38 inch (86 mm) die at the exit. The temperature of extrusion was in the range of 340 to 350 degrees F. (171 to 177 degrees C.) and the WPC boards so produced had dimensions of about 5 feet (152 cm)×5½ inches (14 cm)×1 inch (2.5 cm). The WPC boards were subsequently cut into panels of one foot (30 cm) length.
Wood-plastic composite panels incorporating various biocides were prepared in accordance with the procedure set forth above in Example 1. The panels were evaluated for mildew growth by being exposed to the weather outdoors in Miami, Fla. for one year under a protocol publicly known as ASTM D 3274-94 of ASTM International (originally known as the American Society for Testing and Materials).
For the purposes of this evaluation, any biocide or combination of biocides which prevents moderate (or worse) mildew growth for an outdoor exposure period of at least 9 months is considered to have passed the weathering test.

[1] = system: Aspergillus niger, also known as ATCC 6275; assay: MIC by spiral plater (spiral gradient endpoint) and Berenbaum FIC synergy against A. niger; format: cell-based; conditions: for MIC ppm, average of spiral plater replications: malt agar, 48 hours at 28° C., ppm of active fungicide, mean of twelve replications
Text: A method for assessing synergy of a multi-component mixture having biologically active components is described in a technical article by M. C. Berenbaum entitled “Synergy, additivism and antagonism in immunosuppression”, which was published in the Journal of Clinical Experimental Immunology. See Clinical Exp. Immunol. 28, p. 1-18 (1977).
In the method, the dose of each agent which provides a synergistic or antagonistic effect in the overall biological effect of a mixture against a particular organism is expressed as a fraction of the dose that causes the effect when the respective agent is tested alone (hereinafter referred to as “dose of X/Xe”, “Fractional Inhibitory Concentration of agent X” or “FICX”). If the sum of the FICX's for a combination of active ingredients in a mixture is 1, the combination is additive in its effect. If the sum is less than one, the combination is synergistic. If the sum is greater than one, the combination is antagonistic. The general relationship (which may be an equality or an inequality) expressed for multi-component mixtures of biologically active components is herein designated Equation 1, as follows: […]
In order to apply the Berenbaum method to compositions of the invention, mixtures of fungicidal agents are prepared. The fungicidal activity of each of the mixtures is determined and expressed in terms of a minimum inhibitory concentration, which is just sufficient to inhibit the growth of a given microbe (hereinafter referred to “MIC”) for each of the mixtures. These MICs are subsequently used to calculate FICX for each agent X of a particular mixture. All of the FICX 's for each mixture (also known as the doses of X/Xe for the mixture) are summed, and the criteria for synergism, additivism and antagonism (as set forth above in Equation 1) are used to assess the mixture.
Minimum Inhibitory Concentrations (hereinafter referred to as “MIC”) for various mixtures of biocides were determined against spore suspensions of the fungus Aspergillus niger, also known as ATCC 6275 (hereinafter referred to as “A. niger”). […]

[2] = system: Aureobasidium pullulans, also known as ATCC 9348; assay: MIC by spiral plater and Berenbaum FIC synergy against A. pullulans; format: cell-based; conditions: mean of twelve replications
[3] = 0.23 mass % biocide (0.23 mass % active)
[4] = 0.2 mass % biocide (0.2 mass % active)
[5] = 4.0 mass % biocide (4.0 mass % active)
[6] = 0.22 mass % biocide (0.22 mass % active)

O=C1c2ccccc2C(=O)N1SC(Cl)(Cl)Cl [Folpet]
Mildew Growth 3 Months (mildew; [3]): 10 | Mildew Growth 6 Months (mildew; [3]): 2 | Mildew Growth 9 Months (mildew; [3]): 0 | Mildew Growth 12 Months (mildew; [3]): 0

COC(=O)Nc1nc2ccccc2[nH]1 [BCM, 2-(methoxycarbonylamino)benzimidazole]
MIC ([1]; Aspergillus niger, ATCC6275, pure BCM, read-out: MIC, average of values for Mixtures No. 2 and 3): 2.6 µg/mL

CCCCNC(=O)OCC#CI [IPBC, 3-iodo-2-propynyl butyl carbamate]
MIC ppm, average of spiral plater replications [1]: 0.7 ppm

zinc borate [ZB]
MIC ppm, average of spiral plater replications [1]: 12 ppm

COC(=O)Nc1nc2ccccc2[nH]1 [98% BCM, methyl-N-benzimidazol-2-ylcarbamate]
Mildew Growth 3 Months (mildew; [4]): 5 | Mildew Growth 6 Months (mildew; [4]): 1 | Mildew Growth 9 Months (mildew; [4]): 2 | Mildew Growth 12 Months (mildew; [4]): 4

Zinc Borate [99% Zinc Borate]
Mildew Growth 3 Months (mildew; [5]): 8 | Mildew Growth 6 Months (mildew; [5]): 2 | Mildew Growth 9 Months (mildew; [5]): 6 | Mildew Growth 12 Months (mildew; [5]): 5

O=C1C2CC=CCC2C(=O)N1SC(Cl)(Cl)Cl (stereo not drawn) [Captan]
Mildew Growth 3 Months (mildew; [6]): 9 | Mildew Growth 6 Months (mildew; [6]): 1 | Mildew Growth 9 Months (mildew; [6]): 2 | Mildew Growth 12 Months (mildew; [6]): 4

zinc borate [Mixture No. 4]
MIC ppm, average of spiral plater replications [2]: > 1000 ppm

N#Cc1c(Cl)c(Cl)c(Cl)c(C#N)c1Cl [Chlorothalonil]
Mildew Growth 3 Months (mildew; [4]): 9 | Mildew Growth 6 Months (mildew; [4]): 2 | Mildew Growth 9 Months (mildew; [4]): 0 | Mildew Growth 12 Months (mildew; [4]): 3

Reference: patent US8772334B2, “Synergistic antimicrobial mixtures” (priority 2008, dated 2014)
